# Results from patent publication US20220002280A1, “COMPOUNDS AND METHODS OF USE” (Ferro Therapeutics, Inc., priority 2019, published 2022).
# Where a name gives a salt, the structure may show the parent alone.
# Assays:
# [1] = test system: 786-O; assay: GPX4 inhibition assay: Ferrostatin rescue, 786-O; assay type: cell-based; settings: Homo sapiens, 786-0, 786-O cells
# Protocol: (§1) Cells (SJSA-1, 786-0 and/or A431) were seeded (5000 cells/100 μL/well) in 96-well tissue culture plate and incubated at 37° C./5% CO2 for 16-24 hours. The cells were then treated with compounds (25 μL of 5×). The compound concentrations were 10-0.0005 μM prepared in 3-fold serial dilutions with final DMSO concentration of 1%. The plates were then incubated for 24h at 37° C./5% CO2 in a moist environment. Then Alamar Blue™ reagent (final concentration 1×-12.5 μL) was added to each well and incubated for 1.5 hours at 37° C./5% CO2. The plates were read on fluorescence reader at 540 nm excitation and 590 nm emission wavelengths. The IC50 values were subsequently determined using a sigmoidal dose-response curve (variable slope) in GraphPad Prism® 5 software.
# (§2) Studies have shown that lipophilic antioxidants, such as Ferrostatin, can rescue cells from GPX4 inhibition-induced ferroptosis. For instance, mesenchymal state GPX4-knockout cells can survive in the presence of Ferrostatin, however, when the supply of Ferrostatin is terminated, these cells undergo ferroptosis (see, e.g., Viswanathan et al., Nature 547:453-7, 2017). […] Accordingly, the ability of a molecule to induce ferroptotic cancer cell death, and that such ability is admonished by the addition of Ferrostatin, is clear indication that the molecule is an GPX4 inhibitor.
# [2] = test system: SJSA-1; assay: GPX4 inhibition assay: Ferrostatin rescue, SJSA-1; assay type: cell-based; settings: Homo sapiens, SJSA-1 cells
# Protocol: as §1, §2
# [3] = test system: 786-O; assay: Cell proliferation (Alamar Blue) assay, 786-O; assay type: cell-based, human; settings: 786-O cells, 24 h treatment
# Protocol: (§3) A cell viability assay was performed to assess the potency of the compounds in human cancer cell lines 786-0 (renal cell carcinoma), SJSA-1 (osteosarcoma), and/or A431 (epidermoid carcinoma). Additional cell lines, such as pancreatic cancer cell lines (e.g., Panc 02.13, BxPC-3, Panc 12, Panc 02.03, Panc 6.03, PSN-1, HPAC, and Capan-1), prostate cancer cell lines (e.g., PC-3, DU145, 22Rv1, NCI-H660, BPH1, LNCaP, BM-1604, and MDA PCa 2b), etc., can be tested in a similar method.
# as §1
# [4] = test system: SJSA-1; assay: Cell proliferation (Alamar Blue) assay, SJSA-1; assay type: cell-based, human; settings: SJSA-1 cells, 24 h treatment
# Protocol: as §3, §1
# [5] = test system: A431; assay: Cell proliferation (Alamar Blue) assay, A431; assay type: cell-based, human; settings: 24 h treatment
# Protocol: as §3, §1
# [6] = Mouse IV pharmacokinetics; assay type: in vivo, Balb/c mice; settings: male, Balb/c, plasma; Mouse IV-PK (5 mg/kg)
# Source text: Institutional Animal Ethical Committee (IAEC) of Jubilant Biosys (IAEC/JDC/2019/188R (for Mice) and IAEC/JDC/2019/189R (for Rat) nominated by CPCSEA (Committee for the Purpose of Control and Supervision of Experiments on Animals) approved the mice and rat pharmacokinetic experiments. Male Balb/c mice (˜6-8 weeks old with body weight range of 22-25 g) and male SD rats (6-8 weeks old with body weight range of 200-250 g) were procured from Vivo Biotech, Hyderabad, India. Animals were quarantined in Jubilant Biosys Animal House for a period of 7 days with a 12:12 h light: dark cycles, and prior to the study the animals were stratified as per body weight.
# A) Procedure for Mice: Intravenous, oral and intraperitoneal pharmacokinetics study was done at doses of 5, 20 and 10 mg/kg respectively at dose volume of 10 mL/Kg for PO and IP while 5 mL/kg for IV route. Sparse sampling was done and at each time point three mice were used for blood sampling (˜100 μL) were collected from retro-orbital plexus at 0.083 (Only for IV), 0.25, 0.5, 1, 2, 4, 8, 10 (only for PO) and 24 h. Blood samples collected in tubes containing K2.EDTA as anticoagulant and centrifuged for 5 min at 10,000 rpm in a refrigerated centrifuge (Biofuge, Heraeus, Germany) maintained at 4° C. for plasma separation.
# Group I (IV) received test compound intravenously by tail vein at 5 mg/Kg in solution formulation prepared using 30% Kolliphore EL in WFI; dose volume: 5 mL/Kg; strength: 1 mg/mL.
# Blood concentration-time data of test compound was analyzed by non-compartmental method using Phoenix WinNonlin Version 8.1.
# [7] = test system: A549; assay: Counter-screen in A549 (CellTiter Glo); assay type: cell-based, human; settings: Homo sapiens, A549 cells, 96 hours
# Protocol: Selected compounds were also assayed (counter-screened) in a human lung cancer cell line, A549, a less sensitive cell line to GPX4 inhibitors, as a control to assess differential activity. Cells at a density of 800-2,000 cells/well were seeded in 96-well plates and incubated at 37° C. overnight. A series of nine different concentrations of compound stocks (500×) were created by 3-fold serial dilution in DMSO. These compounds were further diluted in culture media and then added to cells so that the final DMSO concentration was equal to 0.25% or less. After 96 hours of incubation, 50 μL of CellTiter Glo reagent (Promega) was added to each well and luminescence was measured after 10 minutes using EnVision (PerkinElmer). RSL3 (a prototype GPX4 inhibitor, also known as RSL-3) was used as a reference compound titrated from top concentration of up to 30 μM. All compounds were tested initially from 30 µM as the top concentration in duplicates (range of 4.6 nM-30 μM). […] Luminescence from cells treated with DMSO alone was set as Max and % of inhibition was calculated as follows: Inhibition %=(Max-Sample value)/Max*100. Data was analyzed using XL-fit software (ID Business Solutions Ltd.). IC50, relative IC50, or % of top inhibition was calculated.
# [8] = test system: KP4; assay: Cell viability in KP4 (Table 4); assay type: cell-based; settings: Homo sapiens, KP-4; KP4 cells
# [9] = 2 μM Ferrostatin, read-out: 786-O (IC50, μM) 2 μM Ferrostatin
# [10] = 2 μM Ferrostatin, read-out: SJSA-1 (IC50, μM) 2 μM Ferrostatin
# [11] = Homo sapiens, A-431, A431 cells
# [12] = without Ferrostatin, read-out: 786-O (IC50, μM) Without Ferrostatin
# [13] = without Ferrostatin, read-out: SJSA-1 (IC50, μM) Without Ferrostatin
Structure (SMILES),"IC50 ([3]; Homo sapiens, 786-0, 24 h) [µM]",IC50 ([4]; Homo sapiens) [µM],"IC50 [5, 11] [µM]",IC50 [7] [µM],also measured
"C#CC(=O)N1[C@@H](c2ccc(C(=O)NC3CC3)cc2)c2ccc(OC)cc2C[C@@H]1C [Compound 4, N-cyclopropyl-4-((1S,3S)-6-methoxy-3-methyl-2-propioloyl-1,2,3,4-tetrahydroisoquinolin-1-yl)benzamide]",–,–,–,–,"IC50 [1, 9]: 5.73 µM; IC50 [2, 10]: 3.56 µM"
"COc1ccc2c(c1)C[C@H](C)N(C(=O)CCl)[C@H]2c1ccc(C(=O)NC2CC2)cc1 [Compound 5, 4-((1S,3S)-2-(2-chloroacetyl)-6-methoxy-3-methyl-1,2,3,4-tetrahydroisoquinolin-1-yl)-N-cyclopropylbenzamide]",–,–,–,–,"IC50 [1, 9]: > 10 µM; IC50 [2, 10]: > 10 µM"
COc1ccc2c(c1)C[C@H](C)N(C(=O)CCl)[C@H]2c1ccc(F)cc1 [Compound 8],0.181,0.183,7.9,–,"IC50 [1, 9]: > 10 µM; IC50 [1, 12]: 0.181 µM; IC50 [2, 10]: > 10 µM; IC50 [2, 13]: 0.183 µM"
C#CC(=O)N1[C@@H](c2ccc(F)cc2)c2ccc(OC)cc2C[C@@H]1C [Compound 9],0.223,0.436,4.9,–,"IC50 [1, 9]: > 10 µM; IC50 [1, 12]: 0.223 µM; IC50 [2, 13]: 0.436 µM"
"C#CC(=O)N1[C@@H](CCCC)Cc2cc(OC)ccc2[C@@H]1c1ccc(F)cc1 [Compound 12, 1-((1S,3S)-3-butyl-1-(4-fluorophenyl)-6-methoxy-3,4-dihydroisoquinolin-2(1H)-yl)prop-2-yn-1-one]",0.014,0.025,3.5,–,AUC [6]: 181 ng·h/mL; Cmax [6]: 882 ng/mL; Vd [6]: 19.5 L/kg; clearance [6]: 454 mL/min/kg; half-life [6]: 30 min
COC(=O)c1ccc([C@@H]2c3ccc(OC)cc3C[C@H](C(=O)OC)N2C(=O)CCl)cc1 [Compound 41],–,–,–,1.31,IC50 [8]: 0.042 µM
COC(=O)c1ccc([C@H]2c3sccc3C[C@H](C(=O)OC)N2C(=O)CCl)cc1 [Compound 42],–,–,–,5.05,IC50 [8]: 0.0618 µM
COC(=O)c1ccc([C@@H]2c3sccc3C[C@H](C(=O)OC)N2C(=O)CCl)cc1 [Compound 43],–,–,–,10.3,IC50 [8]: 0.525 µM
COc1cc2c(cc1OC)[C@H](c1ccc(N3CCOCC3)cc1)N(C(=O)CCl)[C@@H](C)C2 [Compound 44],0.592,0.599,–,6.58,–
COc1cc2c(cc1OC)[C@@H](c1ccc(N3CCOCC3)cc1)N(C(=O)CCl)[C@@H](C)C2 [Compound 45],5.89,> 3,–,4.74,–
COc1ccc2c(c1)C[C@H](C)N(C(=O)CCl)[C@@H]2c1ccc(N2CCOCC2)cc1 [Compound 46],–,2.56,–,3.83,–
COc1ccc2c(c1)C[C@H](C)N(C(=O)CCl)[C@H]2c1ccc(N2CCOCC2)cc1 [Compound 47],–,0.329,–,6.58,IC50 [3]: 0.259 µM
"C#CC(=O)N1[C@@H](CCCC)Cc2cc(OC)ccc2[C@@H]1c1ccc(NC(=O)c2ccnc(C)c2)cc1 [Compound 95, N-{4-[(1S,3S)-3-butyl-6-methoxy-2-(prop-2-ynoyl)-1,2,3,4-tetrahydroisoquinolin-1-yl]phenyl}-2-methylpyridine-4-carboxamide]",0.037,0.2,> 10,–,–
"C#CC(=O)N1[C@@H](CCCC)Cc2cc(OC)ccc2[C@@H]1C12CC(NC(=O)c3ccncc3)(C1)C2 [Compound 96, N-(3-((1S,3S)-3-butyl-6-methoxy-2-propioloyl-1,2,3,4-tetrahydroisoquinolin-1-yl)bicyclo[1.1.1]pentan-1-yl)isonicotinamide]",0.163,0.368,> 10,–,–
"C#CC(=O)N1[C@@H](CCCC)Cc2cc(OC)ccc2[C@@H]1c1ccc2ncccc2c1 [Compound 97, 1-((1S,3S)-3-butyl-6-methoxy-1-(quinolin-6-yl)-3,4-dihydroisoquinolin-2(1H)-yl)prop-2-yn-1-one]",0.026,0.068,> 10,–,–
"C#CC(=O)N1[C@@H](CCCC)Cc2cc(OC)ccc2[C@@H]1c1ccc(NC(=O)OCCCCC)cc1 [Compound 98, pentyl N-{4-[(1S,3S)-3-butyl-6-methoxy-2-(prop-2-ynoyl)-1,2,3,4-tetrahydroisoquinolin-1-yl]phenyl}carbamate]",0.024,0.053,8.92,–,–
C#CC(=O)N1[C@@H](CCCC)Cc2cc(OC)ccc2[C@@H]1c1ccc(CNC23CC4CC(CC(C4)C2)C3)cc1 [Compound 99],0.002,0.002,2.77,–,–
C#CC(=O)N1[C@@H](CCCC)Cc2cc(OC)ccc2[C@@H]1c1ccc(CNC23CC(C2)C3)cc1 [Compound 100],0.013,0.021,4.06,–,–
"C#CC(=O)N1[C@@H](CCCC)Cc2cc(OC)ccc2[C@@H]1c1ccc(NC23CC4CC(CC(C4)C2)C3)cc1 [Compound 101, 1-((1S,3S)-1-(4-(((3R,5R,7R)-adamantan-1-yl)amino)phenyl)-3-butyl-6-methoxy-3,4-dihydroisoquinolin-2(1H)-yl)prop-2-yn-1-one hydrochloride]",–,–,–,–,"IC50 ([3]; hydrochloride): 0.008 µM; IC50 ([4]; hydrochloride): 0.0115 µM; IC50 ([5]; A431 cells, hydrochloride): 6.87 µM"
"C#CC(=O)N1[C@@H](CCCC)Cc2cc(OC)ccc2[C@@H]1c1ccc(NC(=O)C2CCC2)cc1 [Compound 102, N-(4-((1S,3S)-3-butyl-6-methoxy-2-propioloyl-1,2,3,4-tetrahydroisoquinolin-1-yl)phenyl)cyclobutanecarboxamide]",0.021,0.021,6.13,–,–
